We go through 28 compounds from US9328099B2, “Cyanomethylpyrazole carboxamides as janus kinase inhibitors” (Merck Sharp & Dohme Corp., priority 2011, dated 2016).

Assay [1] deals with JAK1 (Homo sapiens (Human), UniProt P23458). Description: Jak Biochemical HTRF Assay, JAK1. The settings on record: HTRF biochemical assay, GST-tagged catalytic domain; top concentration tested […]; read-out: JAK1 IC50. The text has this: (§1) Jak Biochemical HTRF Assay Protocol
(§2) Subsequent reagent additions employed an Agilent Bravo.

For assay [2], the target named is JAK2 (Homo sapiens (Human), UniProt O60674). In words: Jak Biochemical HTRF Assay, JAK2. The settings on record: HTRF biochemical assay, GST-tagged catalytic domain; top concentration tested […].
JAK2, sequence (O60674 849-1124): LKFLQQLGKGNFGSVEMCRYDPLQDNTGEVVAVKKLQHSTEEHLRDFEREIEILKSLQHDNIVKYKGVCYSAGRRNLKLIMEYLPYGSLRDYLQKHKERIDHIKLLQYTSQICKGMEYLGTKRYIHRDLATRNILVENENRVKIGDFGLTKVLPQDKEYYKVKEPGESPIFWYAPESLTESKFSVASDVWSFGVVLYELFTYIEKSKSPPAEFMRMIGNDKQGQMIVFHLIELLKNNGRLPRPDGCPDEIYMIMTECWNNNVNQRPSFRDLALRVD
Text: as §1, §2

JAK1, sequence (P23458 875-1153): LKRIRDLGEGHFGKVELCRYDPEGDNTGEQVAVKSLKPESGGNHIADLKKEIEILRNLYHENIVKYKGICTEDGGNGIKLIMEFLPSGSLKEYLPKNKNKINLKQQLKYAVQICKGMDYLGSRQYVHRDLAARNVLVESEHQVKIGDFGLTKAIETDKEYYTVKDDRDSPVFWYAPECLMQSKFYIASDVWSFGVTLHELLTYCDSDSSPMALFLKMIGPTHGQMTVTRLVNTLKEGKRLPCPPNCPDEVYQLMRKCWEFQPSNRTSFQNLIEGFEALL

As to `CC(C)(C)OC(=O)N1CCC(CC#N)(n2cc(C(N)=O)c(Nc3ccccn3)n2)CC1` [Example 13-3, tert-butyl 4-(4-carbamoyl-3-(pyridin-2-ylamino)-1H-pyrazol-1-yl)-4-(cyanomethyl)piperidine-1-carboxylate], the IC50 – broadly, the concentration needed to halve the response being measured – in assay [1] was determined as 8 nM; in assay [2], 466 nM.
Regarding `CC(C)(C)OC(=O)N1CCC(CC#N)(n2cc(C(N)=O)c(Nc3ccc(F)cn3)n2)CC1` [Example 13-4, tert-butyl 4-(4-carbamoyl-3-(5-fluoropyridin-2-ylamino)-1H-pyrazol-1-yl)-4-(cyanomethyl)piperidine-1-carboxylate], the results for the IC50 in assay [1] and in assay [2] were 4 nM and 183 nM, respectively.
In the case of `CC(C)(C)OC(=O)N1CCC(CC#N)(n2cc(C(N)=O)c(Nc3cc(F)ccn3)n2)CC1` [Example 13-5, tert-butyl 4-(4-carbamoyl-3-(4-fluoropyridin-2-ylamino)-1H-pyrazol-1-yl)-4-(cyanomethyl)piperidine-1-carboxylate], the IC50 came out at 15 nM in assay [1] and 903 nM in assay [2].
On to `CC(C)(C)OC(=O)N1CCC(CC#N)(n2cc(C(N)=O)c(Nc3cccnn3)n2)CC1` [Example 13-6, tert-butyl 4-(4-carbamoyl-3-(pyridazin-3-ylamino)-1H-pyrazol-1-yl)-4-(cyanomethyl)piperidine-1-carboxylate], for which the IC50 in assay [1] turned out to be 26 nM; in assay [2], 179 nM.
With `CC(C)(C)OC(=O)N1CCC(CC#N)(n2cc(C(N)=O)c(Nc3cnccn3)n2)CC1` [Example 13-7, tert-butyl 4-(4-carbamoyl-3-(pyrazine-2-ylamino)-1H-pyrazol-1-yl)-4-(cyanomethyl)piperidine-1-carboxylate], the IC50 in assay [1] was 8 nM; in assay [2], 210 nM.
In the same order, the values of `Cc1cncc(Nc2nn(C3(CC#N)CCN(C(=O)OC(C)(C)C)CC3)cc2C(N)=O)n1` [Example 13-8, tert-butyl 4-(4-carbamoyl-3-(6-methylpyrazine-2-ylamino)-1H-pyrazol-1-yl)-4-(cyanomethyl)piperidine-1-carboxylate] are 9 nM and 176 nM.
`Cc1cc(Nc2nn(C3(CC#N)CCN(C(=O)OC(C)(C)C)CC3)cc2C(N)=O)nc(C)n1` [Example 13-10, tert-butyl 4-(4-carbamoyl-3-(2,6-dimethylpyrimidin-4-ylamino)-1H-pyrazol-1-yl)-4-(cyanomethyl)piperidine-1-carboxylate]: the IC50 in assay [1] is 6 nM; in assay [2], 178 nM.
In the same order, the values of `Cc1cc(Nc2nn(C3(CC#N)CCN(C(=O)OC(C)(C)C)CC3)cc2C(N)=O)ncn1` [Example 13-11, tert-butyl 4-(4-carbamoyl-3-(6-methylpyrimidin-4-ylamino)-1H-pyrazol-1-yl)-4-(cyanomethyl)piperidine-1-carboxylate] are 5 nM and 126 nM.
For the compound `Cc1noc(C)c1-c1ccc(Nc2nn(C3(CC#N)CCN(C(=O)OC(C)(C)C)CC3)cc2C(N)=O)cc1` [Example 14, tert-Butyl 4-(4-carbamoyl-3-{[4-(3,5-dimethylisoxazol-4-yl)phenyl]amino}-1H-pyrazol-1-yl)-4-(cyanomethyl)piperidine-1-carboxylate], the IC50 in assay [1] was determined as 10 nM; in assay [2], 38 nM.
Turning to `CC(C)(C)OC(=O)N1CCC(CC#N)(n2cc(C(N)=O)c(Nc3cccc(-c4ccc(Cl)cc4)c3)n2)CC1` [Example 15-1, tert-Butyl 4-{4-carbamoyl-3-[(4′-chlorobiphenyl-3-yl)amino]-1H-pyrazol-1-yl}-4-(cyanomethyl)piperidine-1-carboxylate], the IC50 in assay [1] was 148 nM; in assay [2] it was 1480 nM.
In the same order, the values of `CC(C)(C)OC(=O)N1CCC(CC#N)(n2cc(C(N)=O)c(Nc3cccc(-c4ccc(F)cc4)c3)n2)CC1` [Example 15-2, tert-butyl 4-{4-carbamoyl-3-[(4′-fluorobiphenyl-3-yl)amino]-1H-pyrazol-1-yl}-4-(cyanomethyl)piperidine-1-carboxylate] are 51 nM and 1100 nM.
In the same order, the values of `CC(C)(C)OC(=O)N1CCC(CC#N)(n2cc(C(N)=O)c(Nc3cccc(-c4ccccc4)c3)n2)CC1` [Example 15-3, tert-butyl 4-[3-(biphenyl-3-ylamino)-4-carbamoyl-1H-pyrazol-1-yl]-4-(cyanomethyl)piperidine-1-carboxylate] are 341 nM and 1050 nM.
Take `COc1ccc(-c2cccc(Nc3nn(C4(CC#N)CCN(C(=O)OC(C)(C)C)CC4)cc3C(N)=O)c2)cc1` [Example 15-4, tert-butyl 4-{4-carbamoyl-3-[(4′-methoxybiphenyl-3-yl)amino]-1H-pyrazol-1-yl}-4-(cyanomethyl)piperidine-1-carboxylate]: the figures for the IC50 in assay [1] and in assay [2] were 41 nM and 958 nM, respectively.
Consider `CC(C)(C)OC(=O)N1CCC(CC#N)(n2cc(C(N)=O)c(Nc3cccc(-c4ccc(O)cc4)c3)n2)CC1` [Example 15-5, tert-butyl 4-{4-carbamoyl-3-[(4′-hydroxybiphenyl-3-yl)amino]-1H-pyrazol-1-yl}-4-(cyanomethyl)piperidine-1-carboxylate], for which the IC50 worked out at 14 nM in assay [1] and 293 nM in assay [2].
On the same counts, the results for `Cc1ccc(-c2cccc(Nc3nn(C4(CC#N)CCN(C(=O)OC(C)(C)C)CC4)cc3C(N)=O)c2)cc1` [Example 15-6, tert-butyl 4-{4-carbamoyl-3-[(4′-methylbiphenyl-3-yl)amino]-1H-pyrazol-1-yl}-4-(cyanomethyl)piperidine-1-carboxylate] are 85 nM and 1480 nM.
With `Cc1ccccc1-c1cccc(Nc2nn(C3(CC#N)CCN(C(=O)OC(C)(C)C)CC3)cc2C(N)=O)c1` [Example 15-7, tert-butyl 4-{4-carbamoyl-3-[(2′-methylbiphenyl-3-yl)amino]-1H-pyrazol-1-yl}-4-(cyanomethyl)piperidine-1-carboxylate], the IC50 in assay [1] came to 127 nM; in assay [2] it was 1480 nM.
On the same counts, the results for `CC(C)(C)OC(=O)N1CCC(CC#N)(n2cc(C(N)=O)c(Nc3cccc(-c4cccc(Cl)c4)c3)n2)CC1` [Example 15-8, tert-butyl 4-{4-carbamoyl-3-[(3′-chlorobiphenyl-3-yl)amino]-1H-pyrazol-1-yl}-4-(cyanomethyl)piperidine-1-carboxylate] are 161 nM and 1480 nM.
In the same order, the values of `CC(C)(C)OC(=O)N1CCC(CC#N)(n2cc(C(N)=O)c(Nc3cccc(-c4ccc5ccccc5c4)c3)n2)CC1` [Example 15-9, tert-butyl 4-{4-carbamoyl-3-[(3-naphthalen-2-ylphenyl)amino]-1H-pyrazol-1-yl}-4-(cyanomethyl)piperidine-1-carboxylate] are 644 nM and 1480 nM.
On the same counts, the results for `CC(C)(C)OC(=O)N1CCC(CC#N)(n2cc(C(N)=O)c(Nc3cccc(-c4ccccc4F)c3)n2)CC1` [Example 15-10, tert-butyl 4-{4-carbamoyl-3-[(2′-fluorobiphenyl-3-yl)amino]-1H-pyrazol-1-yl}-4-(cyanomethyl)piperidine-1-carboxylate] are 31 nM and 841 nM.
Regarding `CC(C)(C)OC(=O)N1CCC(CC#N)(n2cc(C(N)=O)c(Nc3cccc(-c4ccccc4O)c3)n2)CC1` [Example 15-11, tert-butyl 4-{4-carbamoyl-3-[(2′-hydroxybiphenyl-3-yl)amino]-1H-pyrazol-1-yl}-4-(cyanomethyl)piperidine-1-carboxylate], the IC50 in assay [1] amounted to 13 nM; in assay [2], 182 nM.
With `CC(C)(C)OC(=O)N1CCC(CC#N)(n2cc(C(N)=O)c(Nc3ccc(CC(=O)O)cc3)n2)CC1` [Example 18, [4-({1-[1-(tert-Butoxycarbonyl)-4-(cyanomethyl)piperidin-4-yl]-4-carbamoyl-1H-pyrazol-3-yl}amino)phenyl]acetic acid], the IC50 came out at 0.1 nM in assay [1] and 10 nM in assay [2].
In the case of `N#CCC1(n2cc(C(N)=O)c(Nc3ccccc3)n2)CN(CC(F)(F)F)C1` [Example 19, 1-[3-(Cyanomethyl)-1-(2,2,2-trifluoroethyl)azetidin-3-yl]-3-(phenylamino)-1H-pyrazole-4-carboxamide], the IC50 amounted to 162 nM in assay [1] and 870 nM in assay [2].
As to `CN1CC(CC#N)(n2cc(C(N)=O)c(Nc3ccccc3)n2)C1` [Example 20, 1-[3-(Cyanomethyl)-1-methylazetidin-3-yl]-3-(phenylamino)-1H-pyrazole-4-carboxamide], the IC50 in assay [1] came to 358 nM; in assay [2], 1480 nM.
In the case of `N#CCC1(n2cc(C(N)=O)c(Nc3ccccc3)n2)CCN(Cc2ccc(-c3ccccc3)cc2)CC1` [Example 21-1, 1-[1-(Biphenyl-4-ylmethyl)-4-(cyanomethyl)piperidin-4-yl]-3-(phenylamino)-1H-pyrazole-4-carboxamide], the IC50 in assay [1] is 6 nM; in assay [2], 46 nM.
In the same order, the values of `N#CCC1(n2cc(C(N)=O)c(Nc3ccccc3)n2)CCN(Cc2cccnc2)CC1` [Example 21-2, 1-[4-(cyanomethyl)-1-(pyridin-3-ylmethyl)piperidin-4-yl]-3-(phenylamino)-1H-pyrazole-4-carboxamide] are 3 nM and 11 nM.
In the same order, the values of `N#CCC1(n2cc(C(N)=O)c(Nc3ccccc3)n2)CCN(Cc2ccc(C#N)cc2)CC1` [Example 21-4, 1-[1-(4-cyanobenzyl)-4-(cyanomethyl)piperidin-4-yl]-3-(phenylamino)-1H-pyrazole-4-carboxamide] are 29 nM and 243 nM.
On the same counts, the results for `N#CCCCN1CCC(CC#N)(n2cc(C(N)=O)c(Nc3ccccc3)n2)CC1` [Example 21-5, 1-[4-(cyanomethyl)-1-(3-cyanopropyl)piperidin-4-yl]-3-(phenylamino)-1H-pyrazole-4-carboxamide] are 46 nM and 314 nM.
Turning to `N#CCC1(n2cc(C(N)=O)c(Nc3ccccc3)n2)CCN(Cc2ccccc2Cl)CC1` [Example 21-6, 1-[1-(2-chlorobenzyl)-4-(cyanomethyl)piperidin-4-yl]-3-(phenylamino)-1H-pyrazole-4-carboxamide], the IC50 worked out at 3 nM in assay [1] and 55 nM in assay [2].
